These results are taken from article PMC9596378, “Discovery and molecular basis of subtype-selective cyclophilin inhibitors” (Nature Chemical Biology, 2022).

What all share (test): Anisotropy (fluorescence polarization) binding assay
In assay [1] the target is CypD (Homo sapiens, UniProt P30405). Details: PPIF (UniProtKB Entry P30405: residues 45–207); made in house; host or cells: E. coli BL21(DE3). Particulars: 0.5 nM fluorescein-labeled macrocycle. The procedure: (§1) Final assay volume was 100 µL with 0.25% DMSO. Fluorescence anisotropy was then measured using a Tecan Spark plate reader using 492 nm/523 nm excitation/emission settings.
CypD, sequence (P30405 45-207): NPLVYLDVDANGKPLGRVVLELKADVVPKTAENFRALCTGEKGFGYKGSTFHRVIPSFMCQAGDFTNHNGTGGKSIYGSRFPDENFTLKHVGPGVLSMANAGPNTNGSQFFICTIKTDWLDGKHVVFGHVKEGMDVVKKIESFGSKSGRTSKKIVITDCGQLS

In assay [2] the target is Cyp40 (Homo sapiens, UniProt Q08752). Details: PPID (UniProtKB Entry Q08752: residues 1–183); made in house; host or cells: E. coli BL21(DE3). The settings on record: 0.5 nM fluorescein-labeled macrocycle. The procedure:
as §1

In assay [3] the target is T1, CypC (Homo sapiens, UniProt P45877).
T1 construct: PPIC (UniProtKB Entry P45877: residues 24–212); host or cells: E. coli BL21(DE3)
T1 sequence (P45877 24-212): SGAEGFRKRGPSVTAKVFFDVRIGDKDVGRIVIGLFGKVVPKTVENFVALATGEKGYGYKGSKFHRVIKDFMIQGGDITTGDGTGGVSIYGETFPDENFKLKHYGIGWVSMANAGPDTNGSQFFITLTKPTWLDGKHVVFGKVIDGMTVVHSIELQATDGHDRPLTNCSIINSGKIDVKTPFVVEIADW
Particulars: 0.5 nM fluorescein-labeled macrocycle. The method, then: as §1

Assay [4] has as its target T2, PPIL2 (Homo sapiens, UniProt Q13356).
T2 construct: PPIL2 (UniProtKB Entry Q13356: residues 280–457); His6 tag with thrombin site (pET28a LIC); GS remnant after cleavage (N, cleaved yes); host or cells: E. coli BL21(DE3)
Particulars: 0.5 nM fluorescein-labeled macrocycle. The procedure:
as §1

The target of assay [5] is T3, CypE (Homo sapiens, UniProt Q9UNP9).
T3 construct: PPIE (UniProtKB Entry Q9UNP9: residues 131–301); host or cells: E. coli BL21(DE3)
T3 sequence (Q9UNP9 131-301): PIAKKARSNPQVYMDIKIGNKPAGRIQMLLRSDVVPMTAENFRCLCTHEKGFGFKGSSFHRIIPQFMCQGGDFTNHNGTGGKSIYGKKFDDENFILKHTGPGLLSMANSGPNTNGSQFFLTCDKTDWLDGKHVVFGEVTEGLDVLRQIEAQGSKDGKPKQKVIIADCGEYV
Particulars: 0.5 nM fluorescein-labeled macrocycle. The method, then:
as §1

In assay [6] the target is T4, CypA (Homo sapiens, UniProt P62937).
T4 construct: PPIA (UniProtKB Entry P62937: residues 1–165); made in house; host or cells: E. coli BL21(DE3)
T4 sequence (P62937 whole entry, the tested form may be a part): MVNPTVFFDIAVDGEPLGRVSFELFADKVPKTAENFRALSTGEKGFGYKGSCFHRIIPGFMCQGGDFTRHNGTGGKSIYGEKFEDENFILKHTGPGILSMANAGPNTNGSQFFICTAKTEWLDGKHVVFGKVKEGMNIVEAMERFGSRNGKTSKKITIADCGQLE
The settings on record: 0.5 nM fluorescein-labeled macrocycle. The method, then:
as §1

Assay [7] deals with T5, NKTR (Homo sapiens, UniProt P30414).
T5 construct: NKTR (UniProtKB Entry P30414: residues 7–179); host or cells: E. coli BL21(DE3)
T5 sequence (P30414 7-179): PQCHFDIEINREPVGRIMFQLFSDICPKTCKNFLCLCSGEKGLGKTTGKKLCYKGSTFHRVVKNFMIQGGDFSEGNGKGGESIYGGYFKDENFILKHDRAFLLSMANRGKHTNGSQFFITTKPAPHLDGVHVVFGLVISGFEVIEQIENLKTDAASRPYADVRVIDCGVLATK
Particulars: 0.5 nM fluorescein-labeled macrocycle. The procedure: as §1

Assay [8] deals with T6, CypE K212A (Homo sapiens, UniProt Q9UNP9, K212A).
T6 construct: Lane 4- GS-CypE K212A (131-301);; His6 tag with thrombin site (pET28a LIC); GS remnant stays on the N-terminus (N, cleaved yes); host or cells: E. coli BL21(DE3)
T6 sequence (Q9UNP9 131-301 K212A): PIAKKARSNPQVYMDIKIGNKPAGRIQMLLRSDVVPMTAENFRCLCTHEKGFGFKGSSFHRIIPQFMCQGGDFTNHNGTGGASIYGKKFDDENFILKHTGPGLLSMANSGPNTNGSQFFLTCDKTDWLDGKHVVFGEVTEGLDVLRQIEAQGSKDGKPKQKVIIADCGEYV
The settings on record: 0.5 nM A26-Fl. The method, then: as §1

For assay [9], the target named is T7, CypB (Homo sapiens, UniProt P23284).
T7 construct: PPIB (UniProtKB Entry P23284: residues 34–216); His6 with TEV site (2BT vector leader) (N); made in house; host or cells: E. coli BL21(DE3)
T7 sequence (P23284 34-216): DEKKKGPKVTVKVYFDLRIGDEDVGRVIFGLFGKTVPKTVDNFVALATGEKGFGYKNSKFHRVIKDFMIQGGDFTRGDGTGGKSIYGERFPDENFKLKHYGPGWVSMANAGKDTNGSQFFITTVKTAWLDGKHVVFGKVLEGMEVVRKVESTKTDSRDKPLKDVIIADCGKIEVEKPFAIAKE
Particulars: 0.5 nM fluorescein-labeled macrocycle. The method, then: as §1

The target of assay [10] is T8, PPIL6(C-Myc/DDK) (Homo sapiens, UniProt Q8IXY8).
T8 construct: Myc; DDK (FLAG); purchased Millipore-Sigma
T8 sequence (Q8IXY8 whole entry): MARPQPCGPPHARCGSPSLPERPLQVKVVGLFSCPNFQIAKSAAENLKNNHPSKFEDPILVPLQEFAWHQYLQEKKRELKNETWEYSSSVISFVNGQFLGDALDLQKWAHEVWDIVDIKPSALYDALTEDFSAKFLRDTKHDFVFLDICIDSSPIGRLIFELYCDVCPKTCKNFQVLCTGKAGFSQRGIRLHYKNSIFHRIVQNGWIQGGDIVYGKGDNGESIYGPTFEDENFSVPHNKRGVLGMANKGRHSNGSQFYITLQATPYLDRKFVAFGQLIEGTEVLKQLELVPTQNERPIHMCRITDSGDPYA
The settings on record: 0.5 nM fluorescein-labeled macrocycle. The procedure: as §1

Assay [11] concerns the target T9, SDCCAG-10(GST) (Homo sapiens, UniProt Q6UX04).
T9 construct: GST; purchased Abnova
The settings on record: 0.5 nM fluorescein-labeled macrocycle. The procedure:
as §1

Assay [12] concerns the target T10, PPWD1 (Homo sapiens, UniProt Q96BP3).
T10 construct: PPWD1 (UniProtKB Entry Q96BP3: residues 473–646); host or cells: E. coli BL21(DE3)
T10 sequence (Q96BP3 473-646): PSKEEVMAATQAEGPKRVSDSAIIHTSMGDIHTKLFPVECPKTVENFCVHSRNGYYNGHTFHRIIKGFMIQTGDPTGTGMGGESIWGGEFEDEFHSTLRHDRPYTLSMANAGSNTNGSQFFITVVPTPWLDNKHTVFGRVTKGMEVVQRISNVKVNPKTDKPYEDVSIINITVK
The settings on record: 0.5 nM fluorescein-labeled macrocycle. The procedure:
as §1

For assay [13], the target named is T11, CypG (Homo sapiens, UniProt Q13427).
T11 construct: PPIG (UniProtKB Entry Q13427: residues 1–179); His6 with thrombin site (pET28a LIC leader) (N); host or cells: E. coli BL21(DE3)
T11 sequence (Q13427 1-179): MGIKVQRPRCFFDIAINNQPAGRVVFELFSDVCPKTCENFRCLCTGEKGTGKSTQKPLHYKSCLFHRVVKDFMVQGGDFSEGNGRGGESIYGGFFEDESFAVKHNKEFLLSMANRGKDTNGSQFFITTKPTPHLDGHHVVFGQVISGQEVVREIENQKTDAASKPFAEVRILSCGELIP
The settings on record: 0.5 nM fluorescein-labeled macrocycle. The method, then:
as §1

Assay [14] addresses T12, CypE K217A (Homo sapiens, UniProt Q9UNP9, K217A).
T12 construct: Lane 5- GS-CypE K217A (131-301);; His6 tag with thrombin site (pET28a LIC); GS remnant stays on the N-terminus (N, cleaved yes); host or cells: E. coli BL21(DE3)
The settings on record: 0.5 nM A26-Fl. The method, then: as §1

Assay [15] has as its target T13, PPIL3 (Homo sapiens, UniProt Q9H2H8).
T13 construct: PPIL3 (UniProtKB Entry Q9H2H8: residues 1–161); His6 tag with TEV site (2BT vector); SNA remnant stays on the N-terminus (N, cleaved yes); made in house; host or cells: E. coli BL21(DE3)
The settings on record: 0.5 nM fluorescein-labeled macrocycle. The procedure:
as §1

For assay [16], the target named is T14, CypE K218A (Homo sapiens, UniProt Q9UNP9, K218A).
T14 construct: Lane 6- GS-CypE K218A (131-301);; His6 tag with thrombin site (pET28a LIC); GS remnant stays on the N-terminus (N, cleaved yes); host or cells: E. coli BL21(DE3)
T14 sequence (Q9UNP9 131-301 K218A): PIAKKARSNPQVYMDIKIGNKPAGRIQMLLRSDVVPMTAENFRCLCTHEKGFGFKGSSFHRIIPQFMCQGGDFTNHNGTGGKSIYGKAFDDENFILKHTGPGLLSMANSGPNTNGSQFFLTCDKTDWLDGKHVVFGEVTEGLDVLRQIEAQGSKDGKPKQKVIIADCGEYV
Particulars: 0.5 nM A26-Fl. The method, then:
as §1

The target in assay [17] is T15, PPIL4(Full Length) (Homo sapiens, UniProt Q8WUA2).
T15 construct: PPIL4 (full length); purchased Millipore-Sigma
T15 sequence (Q8WUA2 whole entry): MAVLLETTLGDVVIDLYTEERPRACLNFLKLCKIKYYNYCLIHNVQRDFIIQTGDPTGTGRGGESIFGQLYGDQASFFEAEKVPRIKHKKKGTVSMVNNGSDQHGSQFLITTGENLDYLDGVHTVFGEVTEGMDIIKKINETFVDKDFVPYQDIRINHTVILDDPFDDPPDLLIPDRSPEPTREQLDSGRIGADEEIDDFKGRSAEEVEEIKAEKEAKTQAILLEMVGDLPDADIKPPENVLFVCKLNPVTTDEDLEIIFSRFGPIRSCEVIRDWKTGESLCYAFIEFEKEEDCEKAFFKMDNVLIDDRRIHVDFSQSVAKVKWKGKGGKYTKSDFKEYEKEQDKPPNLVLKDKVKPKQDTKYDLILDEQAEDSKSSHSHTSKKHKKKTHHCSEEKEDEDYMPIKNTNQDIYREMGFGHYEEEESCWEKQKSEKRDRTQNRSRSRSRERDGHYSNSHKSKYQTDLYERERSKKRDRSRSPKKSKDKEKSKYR
The settings on record: 0.5 nM fluorescein-labeled macrocycle. The procedure:
as §1

In assay [18] the target is T16, PPIL1 (Homo sapiens, UniProt Q9Y3C6).
T16 construct: PPIL1 (UniProtKB Entry Q9Y3C6: residues 1–166); made in house; host or cells: E. coli BL21(DE3)
T16 sequence (Q9Y3C6 1-166): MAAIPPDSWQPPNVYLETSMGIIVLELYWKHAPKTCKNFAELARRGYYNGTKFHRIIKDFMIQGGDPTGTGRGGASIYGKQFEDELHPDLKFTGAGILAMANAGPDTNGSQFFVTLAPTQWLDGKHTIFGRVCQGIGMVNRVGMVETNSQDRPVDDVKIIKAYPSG
Particulars: 0.5 nM fluorescein-labeled macrocycle. The method, then:
as §1

Assay [19] deals with T17, CypH (Homo sapiens, UniProt O43447).
T17 construct: PPIH (UniProtKB Entry O43447: residues 1–177); His6 with TEV site (2BT vector leader) (N); made in house; host or cells: E. coli BL21(DE3)
T17 sequence (O43447 whole entry, the tested form may be a part): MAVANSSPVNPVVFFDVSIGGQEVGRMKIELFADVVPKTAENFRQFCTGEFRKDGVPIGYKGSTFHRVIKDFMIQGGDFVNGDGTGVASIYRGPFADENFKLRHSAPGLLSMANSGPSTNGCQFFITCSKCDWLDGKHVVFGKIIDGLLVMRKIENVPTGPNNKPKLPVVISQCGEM
Particulars: 0.5 nM fluorescein-labeled macrocycle. The procedure:
as §1

SMILES strings stand for the structures. A value given as a limit tells only on which side of the number the result lay.

T2 sequence (Q13356 280-457): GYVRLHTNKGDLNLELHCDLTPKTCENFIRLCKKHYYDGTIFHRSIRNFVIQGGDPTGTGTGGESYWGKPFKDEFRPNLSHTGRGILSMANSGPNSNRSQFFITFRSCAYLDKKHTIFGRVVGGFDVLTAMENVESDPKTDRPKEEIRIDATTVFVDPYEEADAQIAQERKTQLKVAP
T9 sequence (Q6UX04 whole entry): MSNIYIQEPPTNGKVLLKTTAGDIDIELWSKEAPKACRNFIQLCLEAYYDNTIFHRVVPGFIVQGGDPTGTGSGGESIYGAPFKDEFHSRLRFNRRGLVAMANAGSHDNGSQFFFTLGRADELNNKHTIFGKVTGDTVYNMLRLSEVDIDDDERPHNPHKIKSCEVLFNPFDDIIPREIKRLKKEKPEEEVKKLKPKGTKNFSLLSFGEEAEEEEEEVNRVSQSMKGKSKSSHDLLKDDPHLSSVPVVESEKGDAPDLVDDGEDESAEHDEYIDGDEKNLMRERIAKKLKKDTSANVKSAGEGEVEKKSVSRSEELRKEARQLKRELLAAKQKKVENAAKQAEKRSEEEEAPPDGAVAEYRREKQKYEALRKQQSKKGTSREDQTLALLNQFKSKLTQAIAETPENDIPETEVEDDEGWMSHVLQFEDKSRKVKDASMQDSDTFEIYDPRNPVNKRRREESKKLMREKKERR
T13 sequence (Q9H2H8 whole entry, the tested form may be a part): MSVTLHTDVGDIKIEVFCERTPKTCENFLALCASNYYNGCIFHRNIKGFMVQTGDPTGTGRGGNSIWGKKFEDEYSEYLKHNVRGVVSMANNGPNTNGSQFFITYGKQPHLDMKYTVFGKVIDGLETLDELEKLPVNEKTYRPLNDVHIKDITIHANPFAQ
Cyp40, sequence (Q08752 1-183): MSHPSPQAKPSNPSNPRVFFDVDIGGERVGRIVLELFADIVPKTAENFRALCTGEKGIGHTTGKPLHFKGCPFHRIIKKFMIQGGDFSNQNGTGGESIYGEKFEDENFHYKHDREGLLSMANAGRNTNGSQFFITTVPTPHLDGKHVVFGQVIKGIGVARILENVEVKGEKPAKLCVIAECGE
T12 sequence (Q9UNP9 131-301 K217A): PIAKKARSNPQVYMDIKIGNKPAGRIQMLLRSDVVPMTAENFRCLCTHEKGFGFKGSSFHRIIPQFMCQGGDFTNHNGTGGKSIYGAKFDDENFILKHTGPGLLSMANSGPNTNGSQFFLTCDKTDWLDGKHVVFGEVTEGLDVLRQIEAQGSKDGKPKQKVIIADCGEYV

Broadly, the Kd is the constant that tells how readily two partners part at equilibrium. Read a low Kd as a tighter complex. Turning to `O=C1/C=C/C(=O)N2CCC[C@](Cc3ccccc3)(C2)C(=O)N[C@@H](Cc2ccco2)C(=O)NCc2ccccc2CC(=O)N[C@H](C(=O)NCCCOCCOCCOCCCNC(=O)c2ccc3c(c2)C(=O)OC32c3ccc(O)cc3Oc3cc(O)ccc32)CCN1` [Compound A26-Fl], the Kd in assay [1] was 0.017 ± 0.002 µM; in [2] it was 0.17 ± 0.02 µM; in assay [3] it was 0.15 ± 0.03 µM; in assay [4], over 10 µM; in assay [5], 0.1 ± 0.03 µM; in [6], 0.051 ± 0.0007 µM. The Kd in [7] is 1.5 ± 0.4 µM; in assay [8], 0.13 ± 0.03 µM; in assay [9], 0.034 ± 0.005 µM; in assay [10], over 1 µM; in [11], over 1 µM; in [12] it was 1.1 ± 0.6 µM. Besides, the Kd in [13] was 0.17 ± 0.01 µM; in assay [14], 0.07 ± 0.01 µM; in assay [15], 1.7 ± 0.6 µM; in [16], 0.07 ± 0.02 µM; in assay [17], over 1 µM; in assay [18], 0.23 ± 0.04 µM. In [19], this compound had a Kd of 0.6 ± 0.1 µM.
